Source: patent US20060173015A1, “Cyclohexyldiamines as selective alpha 1a/1d adrenoreceptor antagonists for the treatment of benign prostatic hypertrophy and lower urinary tract symptoms” (priority 2004, published 2006)

What was measured:
α1a-AR = molecular target: T1, α1a-AR (Homo sapiens, UniProt P35348); assay: α1-Adrenergic receptor radio-ligand (125I-HEAT) binding assay, α1a subtype; conditions: COS-7 cell membranes, 125I-HEAT
T1 construct: expressed in transfected cells; host or cells: COS-7
T1 sequence (P35348 1-466): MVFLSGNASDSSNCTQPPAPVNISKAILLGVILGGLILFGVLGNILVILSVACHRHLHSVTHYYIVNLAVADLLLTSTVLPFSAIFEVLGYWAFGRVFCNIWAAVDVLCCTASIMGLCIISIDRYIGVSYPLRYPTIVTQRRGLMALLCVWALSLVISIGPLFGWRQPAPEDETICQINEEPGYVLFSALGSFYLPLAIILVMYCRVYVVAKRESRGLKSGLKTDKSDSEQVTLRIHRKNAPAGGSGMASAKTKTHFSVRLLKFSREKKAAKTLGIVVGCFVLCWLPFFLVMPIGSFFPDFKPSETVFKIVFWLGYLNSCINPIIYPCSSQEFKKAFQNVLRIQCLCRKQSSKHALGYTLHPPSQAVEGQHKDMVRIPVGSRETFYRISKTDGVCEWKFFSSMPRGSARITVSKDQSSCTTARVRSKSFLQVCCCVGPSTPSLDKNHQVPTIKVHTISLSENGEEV
Method: α1-Adrenergic Receptor Binding Assay: Preparation of COS Cell Membranes
Membranes were prepared from COS-7 cells that had been transfected with one of the three α1-AR subtypes by the following method. COS cells from ten 100 mm tissue culture plates were scraped into 5 mL TE (50 mM Tris-HCl, 5 mM EDTA, pH 7.4). The cell suspension was disrupted with a Brinkman Polytron, setting 8, for 10 sec. The disrupted cells were centrifuged at 1000×g for 10 min at 4° C. Supernatants were centrifuged at 34,500×g for 20 min at 4° C. The membrane pellets were suspended in 2 mL TNE (50 mM Tris-HCl, 5 mM EDTA, 150 mM NaCl, pH7.4). An aliquot of the membrane suspension was stored at −70° C. until use. The protein concentration was determined using the BioRad DC protein assay kit following membrane solubilization with Triton X-100.
Radio-Ligand Binding Assay
Triplicate determinations of radio-ligand binding in the presence of increasing: concentrations of testing compound were made. The reagents were added to 96-well polypropylene plate wells using the Biomek 1000 robot (Beckman Instruments). Each assay well contained 140 μl TNE, 25 μL ^125I-HEAT (specific activity 2200 Ci/mmol, Dupont-NEN, 50 pM final), 10 μL testing compound dissolved in DMSO (1 pM to 10 μM in half-log increments, final), and 25 μL appropriate α1-AR membrane subtype suspension in TNE (0.5 ng/μL for the α1a and α1b subtypes and 13 ng/μL for the α1d subtype). The plate was incubated at rt for 1 hr. The contents of the wells were filtered through a GF/C membrane Unifilter plate (Packard Instruments) using the Packard Filtermate cell harvester. The filter plates were dried in a vacuum oven for 30 min at 40° C. 25 μL Microscint 20 liquid scintillation fluid (Packard Instuments) was added to each well. The radioactive content was analyzed in the TopCount microplate scintillation counter (Packard Instruments).

α1b-AR = molecular target: T2, α1b-AR (Homo sapiens, UniProt P35368); assay: α1-Adrenergic receptor radio-ligand (125I-HEAT) binding assay, α1b subtype; conditions: Receptor Binding, Ki α1b-AR, COS-7 cell membranes, 125I-HEAT
T2 sequence (P35368 1-520): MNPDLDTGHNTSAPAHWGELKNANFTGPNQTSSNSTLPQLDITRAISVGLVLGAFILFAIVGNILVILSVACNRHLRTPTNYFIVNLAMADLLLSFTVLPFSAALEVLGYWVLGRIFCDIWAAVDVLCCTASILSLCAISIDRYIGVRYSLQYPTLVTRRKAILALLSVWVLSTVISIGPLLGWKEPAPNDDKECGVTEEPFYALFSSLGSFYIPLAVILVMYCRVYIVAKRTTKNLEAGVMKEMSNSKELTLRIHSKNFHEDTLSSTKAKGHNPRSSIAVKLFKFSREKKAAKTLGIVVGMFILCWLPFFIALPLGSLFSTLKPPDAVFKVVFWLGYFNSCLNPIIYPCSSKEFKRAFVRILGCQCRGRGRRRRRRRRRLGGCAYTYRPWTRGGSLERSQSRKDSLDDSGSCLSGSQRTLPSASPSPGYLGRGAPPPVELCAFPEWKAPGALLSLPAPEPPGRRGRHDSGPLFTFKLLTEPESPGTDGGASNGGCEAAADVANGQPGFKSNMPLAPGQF

α1d-AR = molecular target: T3, α1d-AR (Homo sapiens, UniProt P25100); assay: α1-Adrenergic receptor radio-ligand (125I-HEAT) binding assay, α1d subtype; conditions: COS-7 cell membranes, 125I-HEAT; read-out: Receptor Binding, Ki α1d-AR
T3 construct: expressed in transfected cells; host or cells: COS-7
T3 sequence (P25100 1-572): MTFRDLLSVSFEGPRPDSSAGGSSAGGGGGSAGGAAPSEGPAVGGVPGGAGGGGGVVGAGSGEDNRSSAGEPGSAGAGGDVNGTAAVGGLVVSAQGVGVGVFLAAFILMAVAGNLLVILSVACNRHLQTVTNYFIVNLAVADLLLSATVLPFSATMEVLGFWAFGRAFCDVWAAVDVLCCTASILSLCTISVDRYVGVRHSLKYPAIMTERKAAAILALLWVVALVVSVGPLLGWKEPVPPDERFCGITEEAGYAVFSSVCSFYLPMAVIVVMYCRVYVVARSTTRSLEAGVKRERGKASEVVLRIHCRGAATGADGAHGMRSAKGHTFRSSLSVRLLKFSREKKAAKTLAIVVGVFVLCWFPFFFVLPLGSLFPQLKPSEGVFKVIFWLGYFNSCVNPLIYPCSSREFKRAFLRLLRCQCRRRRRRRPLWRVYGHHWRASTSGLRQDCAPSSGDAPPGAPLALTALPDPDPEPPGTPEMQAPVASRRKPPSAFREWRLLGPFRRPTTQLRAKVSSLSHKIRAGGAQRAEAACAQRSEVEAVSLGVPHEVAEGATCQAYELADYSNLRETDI

| SMILES | Ki (α1a-AR) [nM] | Ki (α1b-AR) [nM] | Ki (α1d-AR) [nM] |
| --- | --- | --- | --- |
| CC(C)Oc1ccccc1N1CCN([C@H]2CC[C@@H](NS(=O)(=O)Cc3ccccc3)CC2)CC1 [Cpd 57, N-cis-{4-[4-(2-Isopropoxy-phenyl)-piperazin-1-yl]-cyclohexyl}-C-phenyl-methanesulfonamide] | 1.2 | 82 | 3.6 |
| CC(C)Oc1ccccc1N1CCN([C@H]2CC[C@@H](NS(=O)(=O)c3cnc(Cl)c(Br)c3)CC2)CC1 [Cpd 61, 5-Bromo-6-chloro-pyridine-3-sulfonic acid N-cis-{4-[4-(2-isopropoxy-phenyl)-piperazin-1-yl]-cyclohexyl}-amide] | 14.4 | 125 | 0.14 |
| CC(C)Oc1ccccc1N1CCN([C@H]2CC[C@H](NS(=O)(=O)Cc3ccccc3)CC2)CC1 [Cpd 62, N-trans-{4-[4-(2-Isopropoxy-phenyl)-piperazin-1-yl]-cyclohexyl}-C-phenyl-methanesulfonamide] | 3.9 | 200 | 12 |
| CC(C)Oc1ccccc1N1CCN([C@H]2CC[C@H](NS(=O)(=O)c3cnc(Cl)c(Br)c3)CC2)CC1 [Cpd 66, 5-Bromo-6-chloro-pyridine-3-sulfonic acid N-trans-{4-[4-(2-isopropoxy-phenyl)-piperazin-1-yl]-cyclohexyl}-amide] | 3.5 | 279 | 14.6 |
| CCN([C@H]1CC[C@@H](N2CCN(c3ccccc3OC(C)C)CC2)CC1)S(=O)(=O)c1ccc(OC)c(OC)c1 [Cpd 67, N-Ethyl-N-cis-{4-[4-(2-isopropoxy-phenyl)-piperazin-1-yl]-cyclohexyl}-3,4-dimethoxy-benzenesulfonamide] | 15 | 326 | 22 |
| CCN([C@H]1CC[C@H](N2CCN(c3ccccc3OC(C)C)CC2)CC1)S(=O)(=O)c1ccc(OC)c(OC)c1 [Cpd 68, N-Ethyl-N-trans-{4-[4-(2-isopropoxy-phenyl)-piperazin-1-yl]-cyclohexyl}-3,4-dimethoxy-benzenesulfonamide] | 23 | 109 | 6.7 |
| COc1ccc(S(=O)(=O)N[C@H]2CC[C@H](N3CCN(c4ccccc4OCC(F)(F)F)CC3)CC2)cc1OC [Cpd 70] | 54.2 | 34.8 | 8.3 |
| COc1ccc(S(=O)(=O)N[C@H]2CC[C@@H](N3CCN(c4ccc(F)cc4OC(C)C)CC3)CC2)cc1OC [Cpd 71, N-cis-{4-[4-(4-Fluoro-2-isopropoxy-phenyl)-piperazin-1-yl]-cyclohexyl}-3,4-dimethoxy-benzenesulfonamide] | 14.9 | 711 | 5.9 |
| COc1ccc(S(=O)(=O)N[C@H]2CC[C@H](N3CCN(c4ccc(F)cc4OC(C)C)CC3)CC2)cc1OC [Cpd 72, N-trans-{4-[4-(4-Fluoro-2-isopropoxy-phenyl)-piperazin-1-yl]-cyclohexyl}-3,4-dimethoxy-benzenesulfonamide] | 9 | 146 | 12.2 |
| COc1ccc(Cl)cc1S(=O)(=O)N[C@H]1CC[C@@H](N2CCN(c3ccc(F)cc3OC(C)C)CC2)CC1 [Cpd 73, 5-Chloro-N-cis-{4-[4-(4-fluoro-2-isopropoxy-phenyl)-piperazin-1-yl]-cyclohexyl}-2-methoxy-benzenesulfonamide] | 598 | 81 | 134 |
| CC(C)Oc1cc(F)ccc1N1CCN([C@H]2CC[C@@H](NS(=O)(=O)c3cc(Cl)ccc3F)CC2)CC1 [Cpd 74, 5-Chloro-2-fluoro-N-cis-{4-[4-(4-fluoro-2-isopropoxy-phenyl)-piperazin-1-yl]-cyclohexyl}-benzenesulfonamide] | 5.6 | 101 | 2.2 |

Results, then the compound that gave them:

| Ki (α1a-AR) [nM] | Ki (α1b-AR) [nM] | Ki (α1d-AR) [nM] | SMILES |
| --- | --- | --- | --- |
| 2.7 | 487 | 55 | CC(C)Oc1ccccc1N1CCN([C@H]2CC[C@H](NS(=O)(=O)c3ccccc3)CC2)CC1 [Cpd 53] |
| 1 | 236 | 27 | CC(C)Oc1ccccc1N1CCN([C@H]2CC[C@H](NS(=O)(=O)c3ccccc3[N+](=O)[O-])CC2)CC1 [Cpd 54] |
| 8.3 | 116 | 4.3 | CC(C)Oc1ccccc1N1CCN([C@H]2CC[C@@H](NS(=O)(=O)c3cccc4cccnc34)CC2)CC1 [Cpd 58, Quinoline-8-sulfonic acid N-cis-{4-[4-(2-isopropoxy-phenyl)-piperazin-1-yl]-cyclohexyl}-amide] |
| 5 | 400 | 46 | CC(C)Oc1ccccc1N1CCN([C@H]2CC[C@@H](NS(=O)(=O)c3cccnc3)CC2)CC1 [Cpd 59, Pyridine-3-sulfonic acid N-cis-{4-[4-(2-isopropoxy-phenyl)-piperazin-1-yl]-cyclohexyl}-amide] |
| 4.9 | 169 | 9.4 | COc1ccncc1S(=O)(=O)N[C@H]1CC[C@@H](N2CCN(c3ccccc3OC(C)C)CC2)CC1 [Cpd 60, 4-Methoxy-pyridine-3-sulfonic acid N-cis-{4-[4-(2-isopropoxy-phenyl)-piperazin-1-yl]-cyclohexyl}-amide] |
| 0.5 | 77.6 | 22.1 | CC(C)Oc1ccccc1N1CCN([C@H]2CC[C@H](NS(=O)(=O)c3cccc4cccnc34)CC2)CC1 [Cpd 63, Quinoline-8-sulfonic acid N-trans-{4-[4-(2-isopropoxy-phenyl)-piperazin-1-yl]-cyclohexyl}-amide] |
| 5.8 | 192 | 5.5 | CC(C)Oc1ccccc1N1CCN([C@H]2CC[C@H](NS(=O)(=O)c3cccnc3)CC2)CC1 [Cpd 64, Pyridine-3-sulfonic acid N-trans-{4-[4-(2-isopropoxy-phenyl)-piperazin-1-yl]-cyclohexyl}-amide] |
| 13.4 | 268 | 76 | COc1ccncc1S(=O)(=O)N[C@H]1CC[C@H](N2CCN(c3ccccc3OC(C)C)CC2)CC1 [Cpd 65, 4-Methoxy-pyridine-3-sulfonic acid N-trans-{4-[4-(2-isopropoxy-phenyl)-piperazin-1-yl]-cyclohexyl}-amide] |
